How the values were obtained:
[1] = tested on: U-87 MG cells; assay: Preclinical xenograft GBM mouse model, intratumoral injection; assay type: in vivo, mice
Experimental: A preclinical xenograft mouse model was developed to test pladienolide-b in vivo. Five-week-old ATHYMFoxn1nu/nu mice (n = 6; Janvier-Labs) were subcutaneously injected with 3×10^6 of U-87 MG cells in both flanks [in 100 µl of basal membrane extract (Trevigen, # 3432-010-01)]. Once the tumour was clearly measurable (10 days after cell inoculation), each mouse received an intratumour injection with 50 µl of pladienolide-b (10^-7 M) in one flank and vehicle (1x DPBS, Sigma-Aldrich, # D1408) used as a control in another flank. Tumour growth was monitored every 2 days using a digital caliper. 20 days after injection, mice were sacrificed and each tumour was dissected, fixed, and sectioned for histopathological examination after staining with haematoxylin and eosin. Examination of the number of mitoses, vascular proliferation and necrosis was performed by experienced pathologists. Additional tumour pieces were in liquid nitrogen until RNA extraction using Trizol reagent and protein extraction using SDS-DTT buffer, as previously reported. One individual was assessed by micro-CT imaging using SkyScan1176 Bruker and a software environment to show the location of the tumour in vivo prior to dissection. 2D analysis along with 3D image rendering was performed using VolView 3.4 software (KitWare Inc). […]

[2] = tested on: glioblastoma (GBM) cells; assay: In vitro functional assays in glioblastoma cells (proliferation, migration, tumoursphere formation, VEGF secretion, apoptosis, marker expression); assay type: cell-based, human
Experimental: The proliferation assay (see below) was used to develop a dose-response and IC50 determination of pladienolide-b in glioblastoma cells. The selected doses of pladienolide-b, based on previously reported in vitro studies, were 10^-9 , 10^-7 and 10^-5 M measured 48 h after administration of the SF3B1 inhibitor in glioblastoma cell lines and patient-derived primary glioblastoma cell culture. Least squares regression was used as a method of adjustment to the IC50 determination.
As described above, cell proliferation and migration in response to pladienolide-b treatment were analyzed using the alamar blue assay (3,000 cells/well for cell lines and 10,000 cells/well for primary cell cultures; Biosource International, # BUF012B) and the wound healing technique (150,000 U-118 MG cells/well), respectively. For the migration assay, U-118 MG cells cultured at confluence were serum deprived for 24 h to achieve cell synchronization and then wounded with a sterile 200 µl pipette tip. Wells were replaced and cells were incubated for 6 h and 24 h with medium supplemented without FBS. Wound healing was compared to the area immediately after wounding. […]
The VEGF human ELISA kit (ThermoFisher Scientific, no. KHG0112) was used to quantify VEGF secretion in response to pladienolide-b in glioblastoma cell lines, following the manufacturer's instructions. […]

CC[C@H](O)[C@@H](C)[C@H]1O[C@@H]1C[C@H](C)/C=C/C=C(\C)[C@H]1OC(=O)C[C@H](O)CC[C@@](C)(O)[C@@H](OC(C)=O)/C=C/[C@@H]1C [pladienolide-b, [(2 S, 3 S, 4 E , 6 S , 7 R , 10 R ) -7,10-dihydroxy-2 - [(2 E , 4 E, 6 S ) -7 - [(2 R , 3 R ) -3 - [(2 R , 3 S ) -3-hydroxypentan-2-yl]oxiran-2-yl] -6-methylhepta-2,4-dien-2-yl] -3,7-dimethyl-12-oxo-1-oxazacyclododec-4-en-6-yl] acetate]
glioblastoma (GBM) progression and vascularization ([1]; U-87 MG xenograft, intratumour injection of 50 µl (10^-7 M) versus vehicle-treated flank): alters | several functional parameters in vivo ([1]; in vivo, summary statement (Figure 5)): reduced | critical functional parameters of aggressiveness and key markers of tumour development/progression/aggressiveness ([2]; 10^-7 M, compared to control conditions, U-87 MG, U-118 MG and patient-derived primary GBM cells): decreases | several functional parameters in vitro ([2]; summary statement (Figure 4)): reduced

Reference: EP4361136A1, “COMPOUND FOR THE TREATMENT OF GLIOBLASTOMA” (Universidad De Córdoba, priority 2021, dated 2022)
